Key:
[1] = target: T1, CDK9 (Homo sapiens, UniProt P50750); test: CDK9 degradation assay, Western blot, MOLT4 cells; format: cell-based; set-up: endogenous in cells; host or cells: MOLT4 (MOLT-4); details: for CDK9 protein levels: MOLT-4 leukemia cells, 8 h treatment time; for reduction of CDK9 protein levels: 1 μM, compared to DMSO and parent compound KI-ARv3; for concentration at which the concentration dependent decrease of CDK9 levels starts: dose range 10 nM-10 μM
Experimental: Efficiencies were measured by monitoring their impact on CDK9 itself as well as downstream targets of CDK9 phosphorylation such as AR and Pol II.

[2] = test system: Cyclin T; test: Cyclin T protein levels, Western blot, MOLT-4 cells; format: cell-based, human; details: MOLT-4 leukemia cells, 10 μM, 8 h treatment time
Experimental: Compounds 4 and 5 (KI-ARv-03-D09 and -D10) incorporate such bi-aryl extensions and were therefore tested for their ability to degrade CDK9 and/or its associated cyclin T. In addition, the corresponding molecules KB-0742-D01 and -D02 which comprise the […] warhead and bi-aryl extensions were evaluated.

[3] = target: T1, CDK9; test: CDK9 degradation assay, Western blot, 22Rv1 cells; format: cell-based; set-up: endogenous in cells; host or cells: 22Rv1; details: for reduction of CDK9 levels / degradation of CDK9: 10 nM-10 μM
Experimental: (§1) Compounds were evaluated in ARv7 positive 22Rv1 cells in order to assess their potential to degrade CDK9 and its associated downstream phosphorylation targets Pol II as well as AR and related splice variants (FIGS. 6 and 7).

[4] = target: T1, CDK9; test: CDK9 degradation assay, Western blot, MV-4-11 cells; format: cell-based; set-up: endogenous in cells
Experimental: (§2) FIGS. 8A-C show evaluation of KI-ARv3-D07 and -08 in MV-4-11 (FIG. 8A) and Rh-30 (FIG. 8C) cells as well as side by side comparison of both cell lines (FIG. 8B). […] FIG. 8B treatment time is 8 hr.
(§3) The effect of KI-ARv3-D07 and -08 on impacting CDK9 levels in the additional cell lineages MV-4-11 (leukemia cell line) and the Rh-30 (rhabdomyosarcoma cell line) at 6 h and 8 h treatment times (FIG. 8) was also evaluated. […] In Rh-30 no changes in CDK9 levels were detected at any compound concentration (10 nM, 100 nM, 500 nM, 1 μM, 10 μM) at either 6 h or 8 h treatment time (FIGS. 8B and 8C).

[5] = target: T1, CDK9; test: CDK9 degradation assay, Western blot, Rh-30 cells; format: cell-based; set-up: endogenous in cells; host or cells: 22Rv1; details: for changes in CDK9 levels: Rh-30 cells, 10 nM, 100 nM, 500 nM, 1 μM, 10 μM, 6 h or 8 h
Experimental: as §2
FIGS. 9A-D show evaluation of KI-ARv3-D11 and -D18 in 22Rv1 (FIG. 9A, 16 h treatment time), MOLT-4 (FIG. 9B, 7 h treatment time), and Rh-30 (FIGS. 9C and 9D, 16 h treatment time) cell lines.
as §3

[6] = test system: AR; test: AR and AR splice variant protein levels, Western blot, 22Rv1 cells; format: cell-based; details: FIG. 7 (24 hours, 10 nM-10 μM)
Experimental: as §1

[7] = test system: Pol II; test: Pol II protein levels, Western blot, 22Rv1 cells; format: cell-based; details: FIG. 7 (24 hours, 10 nM-10 μM)
Experimental: as §1

[8] = MOLT4 cells, 1 μM and 5 μM, 6 hours, compared to DMSO
[9] = MOLT4 cells, low dose 1 μM, 24 hours

T1 sequence (P50750 whole entry): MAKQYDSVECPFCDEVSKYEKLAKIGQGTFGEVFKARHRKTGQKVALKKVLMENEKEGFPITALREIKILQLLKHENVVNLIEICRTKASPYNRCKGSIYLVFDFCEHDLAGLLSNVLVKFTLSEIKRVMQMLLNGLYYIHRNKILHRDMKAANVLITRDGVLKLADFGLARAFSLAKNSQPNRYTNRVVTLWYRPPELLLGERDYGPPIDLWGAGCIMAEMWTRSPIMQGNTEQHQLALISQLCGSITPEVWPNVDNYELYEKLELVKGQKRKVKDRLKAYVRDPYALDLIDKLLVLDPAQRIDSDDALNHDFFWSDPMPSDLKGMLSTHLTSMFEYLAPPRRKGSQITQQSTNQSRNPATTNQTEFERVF
T1 sequence (O60563 whole entry partner): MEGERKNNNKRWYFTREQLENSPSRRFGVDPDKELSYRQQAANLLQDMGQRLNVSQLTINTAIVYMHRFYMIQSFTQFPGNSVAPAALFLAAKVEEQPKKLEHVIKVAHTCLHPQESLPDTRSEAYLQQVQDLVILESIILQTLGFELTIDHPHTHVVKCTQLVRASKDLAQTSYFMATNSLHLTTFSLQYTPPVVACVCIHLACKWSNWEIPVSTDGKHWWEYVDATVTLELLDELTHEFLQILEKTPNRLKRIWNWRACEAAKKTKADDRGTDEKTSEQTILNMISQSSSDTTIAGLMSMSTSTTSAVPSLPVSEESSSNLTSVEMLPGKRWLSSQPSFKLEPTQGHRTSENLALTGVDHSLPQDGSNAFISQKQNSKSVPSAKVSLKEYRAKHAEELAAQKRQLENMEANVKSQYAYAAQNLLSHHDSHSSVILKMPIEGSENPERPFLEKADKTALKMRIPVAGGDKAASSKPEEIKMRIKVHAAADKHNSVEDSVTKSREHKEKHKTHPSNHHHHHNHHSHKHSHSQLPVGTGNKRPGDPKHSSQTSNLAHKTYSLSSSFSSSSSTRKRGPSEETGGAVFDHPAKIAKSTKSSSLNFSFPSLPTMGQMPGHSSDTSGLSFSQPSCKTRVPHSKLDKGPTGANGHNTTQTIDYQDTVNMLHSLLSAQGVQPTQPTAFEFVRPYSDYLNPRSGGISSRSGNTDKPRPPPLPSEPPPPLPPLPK

Row | Structure (SMILES) | CDK9 protein levels ([1]; 10 μM) | Cyclin T protein levels [2] | reduction of CDK9 levels ([3]; 6 hours) | degradation of CDK9 ([3]; 24 hours) | CDK9 degradation [1, 8] | reduction of CDK9 protein levels ([1]; MOLT4 cells, 6 hours) | concentration at which the concentration dependent decrease of CDK9 levels starts ([1]; MOLT4 cells, 6 hours) | CDK9 degradation [1, 9] | changes in CDK9 levels [5] | also measured
1 | CCCc1cc(NC2CCC(NC(=O)c3ccc(-c4ccc(CN)cc4)cc3)C2)n2nccc2n1 (stereo not drawn) [KI-ARv3-D10, 4′-(aminomethyl)-N-(3-((5-propylpyrazolo[1,5-a]pyrimidin-7-yl)amino)cyclopentyl)-[1,1′-biphenyl]-4-carboxamide] | reduction in protein levels | reduction in protein levels | – | – | – | – | – | – | – | –
2 | CCCc1cc(N[C@@H]2CC[C@@H](NC(=O)CCCCCCCCCNc3cccc4c3C(=O)N(C3CCC(=O)NC3=O)C4=O)C2)n2nccc2n1 (stereo partly drawn) [KI-ARv3-D07, 10-((2-(2,6-Dioxopiperidin-3-yl)-1,3-dioxoisoindolin-4-yl)amino)-N-((1R,3R)-3-((5-propylpyrazolo[1,5-a]pyrimidin-7-yl)amino)cyclopentyl)decanamide] | – | – | no significant reduction | not able to facilitate degradation of CDK9 | CDK9 degradation was observed | approximately 80% | 100 nM | reduced | no changes | changes in CDK9 levels ([4]; 6 h and 8 h, FIGS. 8A and 8B): did not lead to significant changes; degradation of CDK9 ([1]; MOLT4 cells, 24 hours, 10 μM): not demonstrated; hook effect on CDK9 degradation ([1]; MOLT4 cells, high dose 5 μM, 24 hours): hook effect
3 | CCCc1cc(N[C@@H]2CC[C@@H](NC(=O)c3ccc(-c4ccc(CN[C@H](C(=O)N5C[C@H](O)C[C@H]5C(=O)NCc5ccc(-c6scnc6C)cc5)C(C)(C)C)cc4)cc3)C2)n2nccc2n1 [KI-ARv3-D18, (2S,4R)-1-((S)-3,3-dimethyl-2-(((4′-(((1R,3R)-3-((5-propylpyrazolo[1,5-a]pyrimidin-7-yl)amino)cyclopentyl)carbamoyl)-[1,1′-biphenyl]-4-yl)methyl)amino)butanoyl)-4-hydroxy-N-(4-(4-methylthiazol-5-yl)benzyl)pyrrolidine-2-carboxamide] | – | – | – | – | – | – | – | – | – | reduction of CDK9 levels ([5]; 25 nM, FIG. 9D (Rh-30, 16 h treatment time)): approximately 80%
4 | CCCc1cc(N[C@@H]2CC[C@@H](NC(=O)c3ccc(-c4ccc(CNc5cccc6c5C(=O)N(C5CCC(=O)NC5=O)C6=O)cc4)cc3)C2)n2nccc2n1 (stereo partly drawn) [KI-ARv3-D08, 4′-(((2-(2,6-dioxopiperidin-3-yl)-1,3-dioxoisoindolin-4-yl)amino)methyl)-N-((1R,3R)-3-((5-propylpyrazolo[1,5-a]pyrimidin-7-yl)amino)cyclopentyl)-[1,1′-biphenyl]-4-carboxamide] | – | – | subtle reduction | significant CDK9 degradation | CDK9 degradation was observed | approximately 80% | 100 nM | reduced | no changes | global AR protein levels [6]: no observed effect; concentration at which reduction in CDK9 protein levels starts ([3]; 6 hours): 500 nM; concentration at which significant CDK9 degradation starts ([3]; 24 hours): 100 nM; concentration at which reduction of CDK9 levels starts ([4]; 6 h and 8 h treatment time): 350 nM; reduction of CDK9 levels ([4]; 6 h and 8 h treatment time): approximately 60%; rescue experiments using proteasome inhibitor MG132 ([4]; FIG. 8A): reversible and proteasome dependent; CDK9 degradation ([1]; MOLT4 cells, 24 hours, across the whole range 10 nM-10 μM): approx. 80%; global Pol II protein levels [7]: no observed effect
5 | CCC(CC)c1cc(N[C@H]2CC[C@H](NC(=O)c3ccc(-c4ccc(CN)cc4)cc3)C2)n2nccc2n1 [KB-0742-D02, 4′-(aminomethyl)-N-((1S,3S)-3-((5-(pentan-3-yl)pyrazolo[1,5-a]pyrimidin-7-yl)amino)cyclopentyl)-[1,1′-biphenyl]-4-carboxamide] | reduction in protein levels | reduction in protein levels | – | – | – | – | – | – | – | –

From patent US20230158159A1, “CHIMERIC DEGRADERS OF CYCLIN-DEPENDENT KINASE 9 AND USES THEREOF” (Massachusetts Institute of Technology, priority 2020, published 2023)
